Results: patent US20060084064A1, “Endocan compositions and methods for the treatment of neoplasms” (priority 2003, published 2006)

B1: placenta growth factor (PlGF): Recombinant human placenta growth factor purchased from R&D Systems (protein, UniProt P49763 19-221, looked up)
Placenta growth factor: LPAVPPQQWALSAGNGSSEVEVVPFQEVWGRSYCRALERLVDVVSEYPSEVEHMFSPSCVSLLRCTGCCGDENLHCVPVETANVTMQLLKIRSGDRPSYVELTFSQHVRCECRHSPGRQSPDMPGDFRADAPSFLPPRRSLPMLFRMEWGCALTGSQSAVWPSSPVPEEIPRMHPGRNGKKQQRKPLREKMKPERCGDAVPRR

How the values were obtained:
endocan mRNA in HUVECs = test: Endocan mRNA expression in serum-starved HUVECs (Northern blot); assay type: cell-based, human; conditions: for Inhibition of endocan induction by VEGF / Inhibition of endocan induction by tumor cell-conditioned medium: HUVECs preincubated 30 minutes with 5 μM BIM; for Inhibition of endocan induction by VEGF: 20 μM LY294002, 50 μM PD98059 or 20 μM SU1498 before 6 hour treatment with 20 ng/ml VEGF, FIGS. 3G; for Inhibition of endocan induction by VEGF / Effect of growth factor addition on endocan mRNA: 3I; for Inhibition of endocan induction by tumor cell-conditioned medium: 20 μM LY294002 or 50 μM PD98059 before 6 hour treatment, FIG. 3H; for Effect of growth factor addition on endocan mRNA: growth factor added to serum-starved HUVECs, FIGS. 3D-3F
Description: Human non-small lung cancer cells (NCI-H1437, ATCC (American Type Culture Collection) CRL-5872) and rat glioma cells (C6, ATCC CCL-107) were grown in DMEM (Life Technologies Inc., Gaithersburg, Md.) containing 10% FBS (Life Technologies Inc.). Human renal cell carcinoma cells (786-0, ATCC CRL-1932) were maintained in RPMI 1640 (Life Technologies Inc.) containing 10% FBS. HUVECs, human epidermal keratinocytes and human renal tubule epithelial cells were obtained from Clonetics (San Diego, Calif.) and grown in EGM-2-MV, KGM and REGM, respectively (Clonetics). All cells were maintained at 37° C. under 5% CO2 in humidified air. Endothelial cells were grown to 90% confluence, serum-starved overnight in EBM-2 medium containing 0.5% FBS and incubated in the absence or presence of tumor cell-conditioned medium or growth factors at the doses and for the times indicated. Unless otherwise stated, endothelial cells were incubated with 20 ng/ml VEGF for 6 hours. In inhibition studies, serum-starved endothelial cells were preincubated with 5 μM BIM, 20 μM LY294002, 50 μM PD98059, or 20 μM SU1498 for 30 minutes before a 6 hour treatment with tumor conditional medium or VEGF. For neutralization studies, tumor conditional medium or growth factors were preincubated with antibodies for 1 hour at 37° C. and the mixture was then added to serum-starved HUVECs.
Cultured cells and tissues were harvested for total RNA extraction, using the Trizol reagent (Life Technologies). Five μg total RNA from cells or 10 μg RNA from tissues were loaded on a 0.7% formaldehyde-containing agarose gel. The RNA was transferred to nylon membrane, covalently cross-linked by UV radiation, prehybridized for 6 hours, and hybridized for 18 hours at 42° C. with 10^6 cpm/ml [^32P] dCTP-labeled human endocan, mouse endocan, mouse vWF, or mouse VEGF cDNA probe.

Flk-1 kinase = conditions: selective inhibitor of Flk-1 kinase, obtained from Calbiochem; cited from earlier work
Flt-1 in HUVECs = conditions: VEGF added to HUVECs; Wang et al. 2000; cited from earlier work

Row | Molecule | Inhibition of endocan induction by VEGF (endocan mRNA in HUVECs) | Inhibition of endocan induction by tumor cell-conditioned medium (endocan mRNA in HUVECs) | Effect of growth factor addition on endocan mRNA (endocan mRNA in HUVECs) | also measured
1 | CN(C)CCCn1cc(C2=C(c3c[nH]c4ccccc34)C(=O)NC2=O)c2ccccc21 [BIM, Bisindolylmaleimide I] | completely inhibited | completely inhibited | – | –
2 | COc1cccc(-c2cc(=O)c3ccccc3o2)c1N [PD90985] | – | not | – | –
3 | CC(C)c1cc(/C=C(\C#N)C(=O)NCCCc2ccccc2)cc(C(C)C)c1O [SU1498] | blocked | – | – | IC50 (Flk-1 kinase): 700 nM
4 | VEGF | – | – | time and dose dependent increase | Cell surface expression of Flt-1 (Flt-1 in HUVECs): reduced; Flt-1 mRNA (Flt-1 in HUVECs): increased
5 | B1 | – | – | did not alter | –
